Assay results taken from patent publication US20050084839A1, “Method for selecting oocytes by using a response to LPA stimulation” (Hitachi, Ltd., priority 2003, published 2005).
Where “and” joins values, the source holds several entries; their conditions need not be identical. Equal entries are not always repeated.

Test system: LPAR expressed endogenously in Xenopus laevis oocytes
Assay: Current response of oocytes to LPA stimulation (two-electrode voltage clamp)
Assay type: cell-based
Settings: 1 nM LPA; for Response to LPA, Average: average of six cells, −60 mV; for Response to LPA (difference between current value before LPA stimulation and peak current value after): individual cells, membrane potential fixed to −60 mV
Text: First, an ovary is extracted from a female Xenopus laevis by a conventional method, and oocytes are isolated from the ovary by an enzymic treatment or the like. Oocytes not suitable for experiments are removed by a microscopic observation of their appearances such as size, shape, color and pattern. From the remaining group of oocytes, several cells, preferably 3 to 10 cells, more preferably 4 to 7 cells, and most preferably 6 cells are extracted at random. The membrane potential of the extracted oocytes is fixed to a constant voltage, for example, […] to −40 mV or +20 mV to +60 mV, preferably −60 mV by a known method such as two-electrode voltage clamp method or patch clamp method (See, e.g., Shin pacchikuranpu jikkengijutuhou, ed. Okada Yasunobu, Yoshiokashoten, Joron Ion Chaneru, pp. 1-14). By fixing the membrane potential, it is possible to measure the ionic current passing through channels or transporters of electrically resistant nature.
To the oocyte after fixing to a certain potential was added about 1 pM to 10 μM, preferably 100 pM to 100 nM, and most preferably 10 nM of LPA, followed by measurement of current response of the oocyte. An average current response is determined for a group of oocytes measured where the current response to LPA stimulation is the difference between the peak current value before LPA addition and the peak current value after LPA addition, providing the response of GPCR for a group of oocytes containing a brood of oocytes. A group of oocytes having a response of GPCR higher than a certain desirable value or within a certain desirable range are selected. The oocytes belonging to the group of oocytes selected in this way originate from a mother, and therefore, each oocyte has genetically nearly equal response of GPCR and may be considered excellent in response of GPCR.
Ovaries were extracted from mother bodies A, B, and C, and their follicle cells were removed by a conventional method. The oocytes after removal of follicles were selected based on their appearances that seemed suitable for experiments, and groups of oocytes were saved separately for each mother body (batches A, B, and C). From each batch, six oocytes were extracted at random, respectively.
The membrane potential of each cell was fixed to −60 mV by the two-electrode voltage clamp method. Each cell was stimulated by 1 nM LPA, and then the current response was measured. The difference between the current value before LPA stimulation and the peak current value after LPA stimulation was determined for each cell and shown in Table 1. There were differences in the responses to LPA among the batches.

With Lysophosphatidic acid [LPA] the “Response to LPA, Average” value (Batch A oocytes) was 0.8 μA, the “Response to LPA (difference between current value before LPA stimulation and peak current value after)” value (Batch A oocytes) was 1.1 μA and 1.5 μA and 0.6 μA (2×) and 0.3 μA and 0.8 μA and the “Response to LPA, Average” value (Batch B oocytes) was 2.0 μA. For the same substance, the “Response to LPA (difference between current value before LPA stimulation and peak current value after)” value (Batch B oocytes) was 2.5 μA and 1.8 μA and 2.6 μA and 1.1 μA and 2.3 μA and 1.4 μA, the “Response to LPA, Average” value (Batch C oocytes) was 0.2 μA and the “Response to LPA (difference between current value before LPA stimulation and peak current value after)” value (Batch C oocytes) was 0.1 μA (2×) and 0.3 μA and 0.4 μA and 0.0 μA and 0.2 μA.
